From US10059741B2 (priority 2015, dated 2018)
Values joined by “and” are separate entries in the source; they are usually repeats but may differ in a detail not shown here. Equal values may be shown once. Read-outs that look alike come from different tables or passages of the source. Bridge positions count the residues as written; N and C are the ends. Square brackets hold non-standard residues; d marks the D form. Peptide text beside a SMILES is read from it. R8 = C=CCCCCCC[C@@](C)(N)C(=O)O; S5 = C=CCCC[C@](C)(N)C(=O)O; Nle = CCCC[C@H](N)C(=O)O

Key:
[1] = in vitro; settings: dog
[2] = test system: influenza virus, various viral strains; assay: organism not typed; format: cell-based
[3] = test system: H7N9 A/Anhui/1/2013; assay: microbe, parasite or virus in culture; format: cell-based, influenza A virus
[4] = test system: Influenza A H1N1 Influenza A/Texas/4/2009; assay: microbe, parasite or virus in culture; format: cell-based, influenza A virus; settings: Influenza A virus, H1N1, MDCK
[5] = test system: Influenza B Brisbane/60/2008; assay: Cytopathic effect (CPE) inhibition in MDCK cells, neutral red; format: cell-based; settings: Influenza B virus, MDCK; Influenza B Brisbane/60/2008; Neutral Red; read-out: EC50
[6] = test system: H1N1 California/07/2009; assay: microbe, parasite or virus in culture; format: cell-based, influenza A virus; settings: for EC50: read-out: EC50 (μM) H1N1 California/07/2009
[7] = test system: H3N2 Perth/16/2009; assay: microbe, parasite or virus in culture; format: cell-based, influenza A virus
[8] = test system: influenza virus, various viral strains; assay: Influenza antiviral evaluation assay (CPE, neutral red dye uptake) in MDCK cells against various viral strains (Tables 8, 9); format: cell-based
[9] = test system: Influenza A H3N2 Influenza A/Brisbane/10/2007; assay: microbe, parasite or virus in culture; format: cell-based, influenza A virus; settings: Influenza A virus, H3N2, MDCK
[10] = test system: Influenza B/Brisbane/60/2008; assay: microbe, parasite or virus in culture; format: cell-based; settings: Influenza B virus, MDCK; Influenza B Influenza B/Brisbane/60/2008; CellTiter-Glo
[11] = test system: H1N1 California/07/2009; assay: microbe, parasite or virus in culture; format: cell-based, influenza A virus
[12] = test system: H1N1 A/Brisbane/59/2007; assay: Cytopathic effect (CPE) inhibition in MDCK cells, neutral red; format: cell-based, influenza A virus
[13] = test system: Influenza A H1N1 Influenza A/California/7/2009; assay: microbe, parasite or virus in culture; format: cell-based, influenza A virus; settings: Influenza A virus, H1N1, MDCK
[14] = test system: Influenza B Florida/04/2006; assay: Cytopathic effect (CPE) inhibition in MDCK cells, neutral red; format: cell-based; settings: Influenza B virus, MDCK; Influenza B Florida/04/2006; Neutral Red; read-out: EC50
[15] = test system: H5N1 A/Duck/MN/1525/81; assay: microbe, parasite or virus in culture; format: cell-based, influenza A virus; settings: Influenza A H5N1 Duck/MN/1525/81, Neutral Red
[16] = test system: H3N2 Perth/16/2009; assay: microbe, parasite or virus in culture; format: cell-based, influenza A virus; remark: listed apart in the source
[17] = test system: H5N1 A/Hong Kong/213/2003; assay: microbe, parasite or virus in culture; format: cell-based, influenza A virus
[18] = test system: Madin Darby canine kidney (MDCK) cells
[19] = test system: influenza virus, various viral strains; format: cell-based; settings: VYR/Neutral Red
[20] = test system: H1N1 A/Solomon Island/03/2006; format: cell-based, influenza A virus; settings: Influenza A H1N1 A/Solomon Is./3/2006-M; Drug Assay Neutral Red; read-out: EC50
[21] = MDCK, Influenza A H5N1 Duck/MN/1525/81, Visual
[22] = Influenza A virus, H3N2, MDCK, read-out: EC50 (μM) H3N2 Perth/16/2009

Molecule `NC(=O)c1ncn([C@@H]2O[C@H](CO)[C@@H](O)[C@H]2O)n1` [Ribavirin, reference compound] has a CC50 ([1]; CC50 (μM) H1N1 California/07/2009) of over 100 µM, a CC50 ([1]; CC50 (μM) H3N2 Perth/16/2009) of over 100 µM and an EC90 [2] of 4.1 µM. For the same molecule, the EC90 ([2]; MDCK) was 5.2 µM, the EC50 ([2]; MDCK, Influenza A H1N1 A/Solomon Is./3/2006-M, Drug Assay Visual) was 10 µM and the EC50 ([2]; MDCK, Influenza A H1N1 California/04/2009-M, Visual) was 10 µM. It also gave an EC50 ([2]; MDCK, Influenza A H1N1 Solomon Is./3/2006-M, Visual) of 10 µM, an EC50 ([2]; MDCK, Influenza A H3N2 Victoria/3/75-M, Visual) of 10 µM and an EC50 ([2]; MDCK, Influenza A H5N1 A/Hong Kong/213/2003, Drug Assay Visual) of 4.2 µM. The EC50 [2, 21] was 10 µM, the EC90 [2, 21] was 9 µM and the EC50 ([2]; MDCK, Influenza A H5N1 Hong Kong/213/2003, Visual) was 43 µM. The EC50 ([2]; MDCK, Influenza A H7N9 A/Anhui/1/2013, Drug Assay Visual) was 3.2 µM, the EC50 ([2]; MDCK, Influenza B Sichuan/379/99-M, Visual) was 10 µM and the EC50 ([3]; Influenza A virus, H7N9, MDCK, Influenza A H7H9 A/Anhui/1/2013, Neutral Red) was 18 µM. For the same molecule, the EC50 ([3]; Influenza A virus, H7N9, MDCK, Influenza A H7N9 A/Anhui/1/2013, Drug Assay Neutral Red) was 3 µM, the EC50 [4] was 14.6 µM and the EC90 [4] was over 100 µM. The EC50 [5] was 5.6 µM, the EC90 ([6]; Influenza A virus, H1N1, MDCK) was 5.5 µM and the EC50 ([6]; Influenza A virus, H1N1, MDCK) was 1.5 to 10 µM. The EC50 [7, 22] was 10 to 25 µM, the EC50 [8] was 9.3 µM and 9.6 µM and 8.9 µM and the EC50 ([8]; MDCK) was 9.8 µM. For the same molecule, the EC50 [9] was 2.81 µM, the EC90 [9] was 11.8 µM and the EC50 [10] was 66.2 µM. The EC90 [10] was over 100 µM, the EC50 [11] was 8.5 µM and 6.8 µM and 10 µM and the EC50 ([11]; Influenza A virus, H1N1, MDCK, read-out: EC50 (μM) H1N1 California/07/2009) was 10 to 25 µM. It also gave an EC50 [12] of 5.6 µM, an EC50 ([12]; Influenza A virus, H1N1, MDCK) of 7.2 µM and an EC50 [13] of 6.53 µM. The EC90 [13] was 16.2 µM, the EC50 [14] was 4.8 µM and the EC50 [15] was 5.6 µM. The EC50 ([15]; Influenza A virus, H5N1, MDCK) was 9.6 µM, the EC50 [16, 22] was 1.5 to 10 µM and the EC50 ([17]; Influenza A virus, H5N1, MDCK, Influenza A H5N1 A/Hong Kong/213/2003, Drug Assay Neutral Red) was 3.6 µM. For the same molecule, the EC50 ([17]; Influenza A virus, H5N1, MDCK, Influenza A H5N1 Hong Kong/213/2003, Neutral Red) was 39 µM, the CC50 ([18]; MDCK cells, run with Influenza A H5N1 Duck/MN/1525/81, Neutral Red) was over 320 µM and the CC50 ([18]; MDCK cells, run with Influenza A H5N1 Duck/MN/1525/81, Visual) was over 320 µM. It also gave a CC50 ([18]; MDCK cells, run with Influenza A H5N1 Hong Kong/213/2003, Neutral Red) of over 1000 µM, a CC50 ([18]; MDCK cells, run with Influenza A H5N1 Hong Kong/213/2003, Visual) of over 1000 µM and a CC50 ([18]; run with Influenza A H5N1 A/Hong Kong/213/2003, Neutral Red) of over 1000 µM. The CC50 ([18]; run with Influenza A H5N1 A/Hong Kong/213/2003, Visual) was over 1000 µM, the CC50 ([18]; run with Influenza A H7N9 A/Anhui/1/2013, Neutral Red) was over 1000 µM and the CC50 ([18]; run with Influenza A H7N9 A/Anhui/1/2013, Visual) was over 1000 µM.

Work on `CCCC[C@H](NC(C)=O)C(=O)N[C@@H](CC(=O)O)C(=O)N[C@H](C(=O)N[C@@H](CC(N)=O)C(=O)N[C@]1(C)CCCCCCC=CCCC[C@@](C)(C(=O)N[C@@H](C)C(=O)N[C@@H](C)C(=O)N[C@@H](CCC(N)=O)C(N)=O)NC(=O)[C@H](C)NC(=O)[C@H](CC(C)C)NC(=O)[C@H](Cc2ccccc2)NC(=O)[C@H](CC(C)C)NC(=O)[C@H](CC(C)C)NC(=O)[C@H]([C@@H](C)O)NC1=O)C(C)C` [SP-18] (Ac-[Nle]DVN[R8]TLLFLA[S5]AAQ-NH2; staple 5-12) yielded a CC50 ([1]; CC50) of over 50 µM, a CC50 ([1]; CC50 (μM) H1N1 California/07/2009, Cell cytotoxicity (CC), run with H1N1 California/07/2009) of over 100 µM and a CC50 ([1]; CC50 (μM) H3N2 Perth/16/2009, Cell cytotoxicity (CC), run with H3N2 Perth/16/2009) of over 100 µM. The CC50 ([1]; CC50, MDCK cells, run with Influenza A H1N1 California/07/2009, Neutral Red) was over 100 µM, the CC50 ([1]; CC50, MDCK cells, run with Influenza A H1N1 California/07/2009, VYR/Neutral Red) was over 100 µM and the CC50 ([1]; CC50, MDCK cells, run with Influenza A H1N1 California/07/2009, Visual) was over 100 µM. It also gave a CC50 ([1]; CC50, MDCK cells, run with Influenza A H3N2 Perth/16/2009, Neutral Red) of over 100 µM, a CC50 ([1]; CC50, MDCK cells, run with Influenza A H3N2 Perth/16/2009, VYR/Neutral Red) of over 100 µM and a CC50 ([1]; CC50, run with Influenza A H1N1 A/Solomon Is./3/2006-M, Neutral Red) of over 100 µM. It also gave a CC50 ([1]; CC50, run with Influenza A H1N1 A/Solomon Is./3/2006-M, Visual) of over 100 µM, a CC50 ([1]; CC50, run with Influenza A H1N1 California/07/20/09 (so in the source), later run, Neutral Red) of over 100 µM and a CC50 ([1]; CC50, run with Influenza A H1N1 California/07/20/09 (so in the source), Visual/Neutral Red) of over 100 µM. The CC50 ([1]; CC50, run with Influenza A H1N1 California/07/2009, Neutral Red) was over 100 µM, the CC50 ([1]; CC50, run with Influenza A H3N2 Perth/16/2006 (so in the source), Neutral Red) was over 100 µM and the CC50 ([1]; CC50, run with Influenza A H3N2 Perth/16/2006 (so in the source), Visual) was over 100 µM. For the same molecule, the CC50 ([1]; CC50, run with Influenza A H3N2 Perth/16/2009, last run, Neutral Red) was over 100 µM, the CC50 ([1]; CC50, run with Influenza A H3N2 Perth/16/2009, Visual/Neutral Red) was over 100 µM and the EC50 ([2]; Influenza A H1N1 A/Solomon Is./3/2006-M, Drug Assay Visual, read-out: EC50) was 13 µM. For the same molecule, the EC50 ([2]; read-out: EC50) was over 50 µM, the EC50 ([3]; read-out: EC50) was over 50 µM and the EC50 ([6]; Cytopathic effect/toxicity (Visual), MDCK cells) was 1.5 to 10 µM. The EC50 ([7]; Cytopathic effect/toxicity (Neutral red), MDCK cells, read-out: EC50 (μM) H3N2 Perth/16/2009) was 25 to 50 µM, the EC50 ([7]; Influenza A H3N2 Perth/16/2006 (so in the source), Drug Assay Neutral Red, read-out: EC50) was 22 µM and the EC50 ([7]; Influenza A H3N2 Perth/16/2009, last run, Drug Assay Neutral Red, read-out: EC50) was over 100 µM. It also gave an EC90 ([7]; Influenza A H3N2 Perth/16/2009, Drug Assay Visual/Neutral Red) of over 100 µM, an EC50 ([7]; Influenza A H3N2 Perth/16/2009, Neutral Red, read-out: EC50) of 33 µM and an EC90 ([19]; Influenza A H1N1 California/07/2009) of 6.4 µM. It also gave an EC90 ([19]; Influenza A H3N2 Perth/16/2009) of over 100 µM, an EC50 ([11]; Cytopathic effect/toxicity (Neutral red), MDCK cells, read-out: EC50 (μM) H1N1 California/07/2009) of 1.5 to 10 µM and an EC50 ([11]; Influenza A H1N1 California/07/20/09 (so in the source), later run, Drug Assay Neutral Red, read-out: EC50) of 7 µM. It also gave an EC90 ([11]; Influenza A H1N1 California/07/20/09 (so in the source), Drug Assay Visual/Neutral Red) of 4 µM, an EC50 ([11]; Influenza A H1N1 California/07/2009, Drug Assay Neutral Red, read-out: EC50) of 3.8 µM and an EC50 ([16]; Cytopathic effect/toxicity (Visual), MDCK cells, read-out: EC50 (μM) H3N2 Perth/16/2009) of 25 to 50 µM. It also gave an EC50 ([16]; Influenza A H3N2 Perth/16/2006 (so in the source), Drug Assay Visual, read-out: EC50) of 14 µM, an EC50 [20] of 29 µM and an EC50 ([17]; read-out: EC50) of over 50 µM.
